The values that follow come from patent publication US9334271B2, “Purine derivatives and their use in the treatment of disease” (Novarits AG, priority 2012, dated 2016).

Experiment [1] has as its system cellular mTOR kinase activity (phosphorylation of Thr 389 of S6K1) in TSC1-/- MEFs. Briefly: Test 2: Cellular mTOR assay (P-P70S6K T389 Surefire). Type of experiment: cell-based. The conditions noted are these: Mus musculus. As to the method:
Test 2: Cellular mTOR Assay
30 μl are added per well to a 384 well-plate using a Multidrop instrument (Thermo scientific), resulting in 4000 cells/well. The plates are incubated at 37° C./5% CO2 for 20 hours (to allow for settling and adherance to the surface).
Eight 3-fold serial dilutions of test-compounds (beginning at 1.8 mM) are prepared in 90% DMSO and compiled on 384 well master plates (Greiner). A pan-pPI3K/mTOR inhibitor (0.8 mM of 8-(6-methoxy-pyridin-3-yl)-3-methyl-1-(4-piperazin-1-yl-3-trifluoromethyl-phenyl)-1,3-dihydro-imidazo[4,5-c]quinolin-2-one in 90% DMSO) is added to the wells for the low control. 90% DMSO is added to the wells for the high controls. Compounds are provided as 250 nl shots (Hummingbird) in 384 well-polypropylene microplates (compound plates). 50 μl of growth medium is added to the compound plates (dilution 1:200) with the Multidrop. After shaking (1 min at 2000 rpm), 10 μl of the first dilution is then transferred to the cell plate with a Matrix Plate Mate 2×3 pipettor (final dilution 1:4). After 1 hour of treatment, medium is removed from the plate and 20 μl of Surefire lysis buffer is added per well with the Multidrop.
Cell lysates are frozen for 15 minutes, thawed with shaking and transferred to the experimental 384 well-Proxiplate (5 μl/well) for the P-P70S6K (T389) Surefire assay (Perkin Elmer #TGR70S50). The first mix is composed of the reaction buffer (containing the specific antibody), the activation buffer and the acceptor beads (40 vol, 10 vol and 1 vol respectively). 5 μl per well is added to the lysates with a Zephyr® SPE Workstation (Caliper Life Sciences) and incubated for 2 hours with shaking at room temperature. After this incubation time, the second mix of dilution buffer and donor beads (20 vol and 1 vol respectively) is added to the plate with the same instrument (2 μl/well). After 2 hours, the plate can be read with an EnVision® Multilabel Reader (Perkin Elmer). Since the beads are light sensitive, their transfer and incubation is executed in a dark room (greenlight).
The raw data is used to generate dose response curves for test compounds and IC50 values calculated therefrom.

Experiment [2] addresses recombinant human mTOR (Homo sapiens (Human), UniProt P42345). As to the kind of experiment: Test 1: mTOR ATP-binding assay based on TR-FRET. The conditions noted are these: GST-tagged truncated human mTOR, tracer-314, TR-FRET. As to the method: Test 1: mTOR ATP-Binding Assay Based on TR-FRET for Recombinant Human mTOR
2. The final volume of the assay is 10 μL and the order of addition is as follows:
50 nL of compounds dilution;
Incubated for 60 minutes at room temperature.
TR-FRET measured in Biotek Synergy2 reader at: • Excitation 340 nm/emission 665 nm • Excitation 340 nm/emission 620 nm
The following final concentrations are used:
1 nM Europium anti-GST antibody;
The following controls are used:
3. IC50 determinations may be performed as follows:
The Emission ratio is converted to percentage of inhibition for each compound concentration. IC50 values are calculated by fitting a sigmoidal dose-response curve to a plot of assay readout over compound concentration. All fits and analysis are performed with the program XLfit4 (ID Business Solutions, Guildford, UK).

Experiment [3] has as its system H4 mCherry-GFP-LC3 cells. Briefly: Test 3: Autophagy assay (mCherry-GFP-LC3 reporter, high-content imaging). The conditions noted are these: 16-18 h treatment, mCherry-positive LC3 puncta/cell; for EC50: Homo sapiens. In kind it is cell-based, human. The source says:
Autophagy is a catabolic pathway that degrades bulk cytosol in lysosomal compartments enabling amino acids and fatty acids to be recycled. One of the key regulators of autophagy is the mammalian target of rapamycin (mTOR), a conserved serine/threonine kinase which suppresses the initiation of the autophagic process when nutrients, growth factors and energy are available. To quantify autophagy induction by mTOR inhibitors, we use a mCherry-GFP-LC3 reporter which is amenable to retroviral delivery into mammalian cells, stable expression and analysis by fluorescence microscopy.
The amino acid sequence of the mCherry-GFP-LC3 construct is shown below (SEQ ID NO: 1). The mCherry sequence is underlined, GFP sequence is in bold and LC3A sequence is boxed.
Described hereinafter is an imaging protocol and image recognition algorithm to visualize and measure changes in the autophagic pathway.
Quantification of Autophagy Using High-Content Imaging and Analysis
• 1. Day 0: Cell plating. Subconfluent H4 mCherry-GFP-LC3 cells are harvested by trypsinization, resuspended in growth medium, and counted (H4 cells: Human neuroglioma cell line (ATCC)). A cell suspension of 66′000 cells/mL is prepared and 30 μL are added into the wells of a 384-well plate using an electronic multichannel pipette. […] The cell plates are briefly spun down and placed at 37° C. and 5% CO2. • 2. Day 1: Compound treatment. Compound dose responses are prepared in DMSO. The dose responses are then diluted 1:50 in medium. 10 ul of the diluted compound is added to 30 ul of cells, yielding a final 1:200 dilution of the original compound and final of 0.5% DMSO. Compound-treatments are performed in triplicates. The 384-well plates are placed at 37° C. and 5% CO2. Compound treatment is performed for 16-18 h (see Note 1). • 3. Day 2: Cell fixation. Cells are fixed by adding 10 μL/well 5× concentrated Mirsky's fixative supplemented with 25 μg/mL Hoechst33342. […] The 384-well plate is briefly spun down and incubated for 1 h at room temperature. Cells are then washed using a 384-well plate washer using a protocol which aspirates the volume down to 10 μL/well before dispensing 100 μL/well 1×TBS. Aspiration and dispensing steps are repeated 4 times and a final volume of 100 μL/well is left. The plate is sealed using an adhesive PCR foil. • 4. Imaging. The bottom of the plate is cleaned with 70% ethanol and then imaged using the InCell 1000 automated epifluorescence microscope. 20× magnification is used and 4 different areas (fields) are imaged per well, this typically captures a total of around 400 cells per well. Hoechst33342 images are acquired using an excitation of 360 nm (D360_40x filter), an emission of 460 nm (HQ460_40M filter) and an exposure time of 150 ms. GFP images are acquired using an excitation of 475 nm (S475_20x filter), an emission of 535 nm (HQ535_50M filter) and an exposure time of 1 s. mCherry images are acquired using an excitation of 535 nm (HQ535_50x filter), an emission of 620 nm (HQ620_60M filter) and an exposure time of 1 s. A quadruple band pass mirror is used for all images. • 5. Image analysis. The InCell Analysis software is used to analyze the images using the Multi Target Analysis algorithm. First, nuclei are detected in the Hoechst33342 image using top-hat segmentation and a minimal nuclear area of 50 μm^2. Cells are defined using a collar of 10 μm around the nuclei. Second, puncta (organelles) are identified in the mCherry image inside the cells using multi-top-hat segmentation. Third, the mask of the mCherry puncta is transferred onto the GFP image. Fourth, the GFP fluorescence intensity inside the mCherry puncta mask is measured (reference intensity). • 6. The ‘organelles’ parameter reflects mCherry-positive puncta of the mCherry-GFP-LC3 reporter and is used to calculate ‘LC3 puncta/cell’. […]

[4] abbreviates: TSC1-/- MEFs, 1 hour treatment, P-P70S6K (T389), read-out: Test 2: T389 cellular assay IC50.
The mark [5] stands for this setting: 1 h, read-out: Test 2: T389 cellular assay IC50 (nM).

Read-outs that look alike come from different tables or passages of the source.

By IC50 is commonly meant the concentration at which inhibition is half-maximal. Usually EC50 stands for the concentration giving half of the maximal effect. Higher therefore signals weaker potency.

recombinant human mTOR, sequence (P42345 1360-2549): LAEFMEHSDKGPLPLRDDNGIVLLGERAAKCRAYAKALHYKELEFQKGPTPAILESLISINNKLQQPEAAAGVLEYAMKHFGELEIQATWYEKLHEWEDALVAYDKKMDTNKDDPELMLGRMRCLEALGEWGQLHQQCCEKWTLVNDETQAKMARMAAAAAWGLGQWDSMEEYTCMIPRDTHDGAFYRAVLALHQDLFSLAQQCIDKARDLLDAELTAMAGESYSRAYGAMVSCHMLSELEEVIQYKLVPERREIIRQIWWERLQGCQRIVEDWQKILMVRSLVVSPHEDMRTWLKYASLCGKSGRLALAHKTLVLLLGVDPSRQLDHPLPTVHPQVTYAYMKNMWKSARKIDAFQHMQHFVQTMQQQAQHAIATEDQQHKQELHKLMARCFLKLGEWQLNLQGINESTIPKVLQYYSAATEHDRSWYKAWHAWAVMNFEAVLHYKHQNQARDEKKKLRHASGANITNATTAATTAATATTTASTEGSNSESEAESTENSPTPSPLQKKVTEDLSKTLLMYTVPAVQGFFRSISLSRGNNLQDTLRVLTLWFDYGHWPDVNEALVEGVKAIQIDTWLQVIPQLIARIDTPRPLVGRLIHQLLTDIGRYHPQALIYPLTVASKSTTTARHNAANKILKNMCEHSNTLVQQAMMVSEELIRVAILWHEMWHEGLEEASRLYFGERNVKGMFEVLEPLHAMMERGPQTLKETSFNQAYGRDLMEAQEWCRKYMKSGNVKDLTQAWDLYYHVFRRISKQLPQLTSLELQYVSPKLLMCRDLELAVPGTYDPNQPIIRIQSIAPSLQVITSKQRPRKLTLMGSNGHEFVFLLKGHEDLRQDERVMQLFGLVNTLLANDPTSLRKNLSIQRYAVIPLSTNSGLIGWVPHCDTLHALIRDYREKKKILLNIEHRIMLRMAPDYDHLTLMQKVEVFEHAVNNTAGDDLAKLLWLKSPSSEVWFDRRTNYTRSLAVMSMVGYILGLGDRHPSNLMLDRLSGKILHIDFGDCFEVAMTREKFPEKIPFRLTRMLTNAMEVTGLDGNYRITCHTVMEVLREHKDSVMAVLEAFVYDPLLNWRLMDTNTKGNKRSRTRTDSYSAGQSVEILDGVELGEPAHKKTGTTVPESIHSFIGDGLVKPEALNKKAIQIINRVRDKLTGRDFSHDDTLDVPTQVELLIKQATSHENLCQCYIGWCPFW

For `C[C@@H]1COCCN1c1nc(N2CCOC[C@@H]2C)nc2[nH]c(-c3ccccn3)nc12` [Example 7, 2-((S)-3-Methyl-morpholin-4-yl)-6-((R)-3-methyl-morpholin-4-yl)-8-pyridin-2-yl-9H-purine], the results for the 50% inhibitory concentration (IC50) in experiment [1] (setting [4]) and in experiment [2] were 997 nM and 184 nM, respectively. Moreover, the concentration for a half-maximal effect (EC50) in experiment [3] stood at 1320 nM.

Turning to `C[C@H]1COCCN1c1nc(N2CCOC[C@@H]2C)c2nc(-c3ccccn3)[nH]c2n1` [Example 8, 2,6-Bis-((S)-3-methyl-morpholin-4-yl)-8-pyridin-2-yl-9H-purine], the IC50 in experiment [1] (setting [4]) came out at 806 nM; in experiment [2] it was 1030 nM. The “Test 3: Autophagy EC50 (nM)” value in experiment [3] is given as “n.m”.

For `C[C@H]1COCCN1c1nc(N2CCOC[C@@H]2C)c2nc(-c3cc[nH]n3)[nH]c2n1` [Example 10, 2,6-Bis-((S)-3-methyl-morpholin-4-yl)-8-(1H-pyrazol-3-yl)-9H-purine], the concentration for half-maximal inhibition (IC50) in experiment [1] (setting [4]) came to 135 nM; in experiment [2], 343 nM. In addition, in experiment [3], the EC50 was 1440 nM.

Consider `C[C@@H]1COCCN1c1nc(N2CCOC[C@H]2C)c2nc(-c3cc[nH]n3)[nH]c2n1` [Example 11, 2,6-Bis-((R)-3-methyl-morpholin-4-yl)-8-(1H-pyrazol-3-yl)-9H-purine], for which the IC50 in experiment [1] (setting [4]) came out at 190 nM; in experiment [2], 385 nM. The concentration giving a half-maximal response (EC50) in experiment [3] turned out to be 1520 nM.

As to `CCC[C@@H]1COCCN1c1nc(N2CCOC[C@H]2C)c2nc(-c3cccc4[nH]ccc34)[nH]c2n1` [Example 12, 8-(1H-Indol-4-yl)-6-((R)-3-methyl-morpholin-4-yl)-2-((R)-3-propyl-morpholin-4-yl)-9H-purine], the figures for the 50% inhibitory concentration (IC50) in experiment [1] (setting [5]) and in experiment [2] were 534 nM and 194 nM, respectively. The molecule also came in with an EC50 in experiment [3] of 674 nM.

Take `CC[C@@H]1COCCN1c1nc(N2CCOC[C@H]2C)c2nc(-c3cccc4[nH]ccc34)[nH]c2n1` [Example 15, 2-((R)-3-Ethyl-morpholin-4-yl)-8-(1H-indol-4-yl)-6-((R)-3-methyl-morpholin-4-yl)-9H-purine]: the figures for the half-maximal inhibitory concentration (IC50) in experiment [1] (setting [5]) and in experiment [2] were 194 nM and 60 nM, respectively. The molecule also gave an EC50 in experiment [3] of 752 nM.

For `C[C@@H]1COCCN1c1nc(N2CCN(C)CC2)nc2[nH]c(-c3cccc4[nH]ccc34)nc12` [Example 16, 8-(1H-Indol-4-yl)-6-((R)-3-methyl-morpholin-4-yl)-2-(4-methyl-piperazin-1-yl)-9H-purine], the IC50 came to 259 nM in experiment [1] (setting [5]) and 308 nM in experiment [2]. In addition, the “Test 3: Autophagy EC50 (nM)” value in experiment [3] is “n.m”.

Consider `C[C@@H]1COCCN1c1nc(N2CCN(C3COC3)CC2)nc2[nH]c(-c3cccc4[nH]ccc34)nc12` [Example 18, 8-(1H-Indol-4-yl)-6-((R)-3-methyl-morpholin-4-yl)-2-(4-oxetan-3-yl-piperazin-1-yl)-9H-purine], for which the 50% inhibitory concentration (IC50) in experiment [1] (setting [4]) amounted to 249 nM; in experiment [2], 91 nM. Besides, in experiment [3], the “Test 3: Autophagy EC50 (nM)” value is “n.m”.

`C[C@@H]1COCCN1c1nc(N2CCC(C(F)(F)F)CC2)nc2[nH]c(-c3cccc4[nH]ccc34)nc12` [Example 22, 8-(1H-Indol-4-yl)-6-((R)-3-methyl-morpholin-4-yl)-2-(4-trifluoromethyl-piperidin-1-yl)-9H-purine]: the IC50 in experiment [1] (setting [5]) was determined as 1040 nM; in experiment [2], 1510 nM. In experiment [3], this molecule displayed an EC50 of 1680 nM.

Consider `C[C@@H]1CN(c2nc(N3CCOC[C@H]3C)c3nc(-c4cccc5[nH]ccc45)[nH]c3n2)C[C@H](C)O1` [Example 23, 2-((2S,6R)-2,6-Dimethyl-morpholin-4-yl)-8-(1H-indol-4-yl)-6-((R)-3-methyl-morpholin-4-yl)-9H-purine], for which the IC50 in experiment [1] (setting [5]) was 104 nM; in experiment [2] it was 78 nM. Besides, the “Test 3: Autophagy EC50 (nM)” value in experiment [3] is “n.m”.

Regarding `C[C@H]1COCCN1c1nc(N2CCOC[C@@H]2C)c2nc(-c3ccc(N)nc3)[nH]c2n1` [Example 27, 5-[2,6-Bis-((S)-3-methyl-morpholin-4-yl)-9H-purin-8-yl]-pyridin-2-ylamine], the IC50 in experiment [1] (setting [5]) turned out to be 1190 nM; in experiment [2], 2410 nM. The molecule also registered a 50% effective concentration (EC50) in experiment [3] of 4740 nM.

`C[C@@H]1COCCN1c1nc(N2CCOC[C@H]2C)c2nc(-c3ccc(N)nc3)[nH]c2n1` [Example 28, 5-[2,6-Bis-((R)-3-methyl-morpholin-4-yl)-9H-purin-8-yl]-pyridin-2-ylamine]: the half-inhibitory concentration (IC50) in experiment [1] (setting [5]) was found to be 272 nM; in experiment [2], 754 nM. In addition, a half-maximal effect in experiment [3] (EC50) was put at 2370 nM.

`C[C@@H]1COCCN1c1nc(N2CCOC[C@H]2C)c2nc(-c3cnc(N)nc3)[nH]c2n1` [Example 29, 5-[2,6-Bis-((R)-3-methyl-morpholin-4-yl) 9H-purin-8-yl]-pyrimidin-2-yl-amine]: the figures for the half-inhibitory concentration (IC50) in experiment [1] (setting [5]) and in experiment [2] were 498 nM and 1310 nM, respectively. In experiment [3], this molecule showed a 50% effective concentration (EC50) of 3610 nM.

With `C[C@H]1COCCN1c1nc(N2CCOC[C@@H]2C)c2nc(-c3ccc(-c4ncc[nH]4)cc3)[nH]c2n1` [Example 30, 8-[4-(1H-Imidazol-2-yl)-phenyl]-2,6-bis-((S)-3-methyl-morpholin-4-yl)-9H-purine], the results for the half-maximal inhibitory concentration (IC50) in experiment [1] (setting [4]) and in experiment [2] were 1140 nM and 364 nM, respectively. In addition, it took 1460 nM to reach a half-maximal effect in experiment [3] (EC50).
